Source: article PMC7587356, “High-Throughput Screening for Inhibitors of the SARS-CoV-2 Protease Using a FRET-Biosensor” (Molecules, 2020)
Where two headings read alike, the source gives them in different places.

Key:
[1] = biological target: T1, SARS-CoV-2 3CLpro (Severe acute respiratory syndrome coronavirus 2, UniProt P0DTD1); assay: biochemical; format: biochemical
[2] = biological target: T1, SARS-CoV-2 3CLpro; assay: biochemical; format: biochemical; conditions: for inhibition at 5 µM: 4 h
[3] = with 0.01% Triton X-100; mean ± SD of triplicate; 4 h, 30 °C; read-out: A) EC50 with Triton X-100
[4] = without Triton X-100; mean ± SD of triplicate; 4 h, 30 °C; read-out: B) EC50 without Triton X-100
[5] = sheet LOPAC_screen_w_protease, primary screen at 5 µM, mean of two replicates, read-out: mean (LOPAC screen with protease)
[6] = sheet LOPAC_screen_w_protease, primary screen at 5 µM, replicate 1, read-out: Replicate_1 (LOPAC screen with protease)
[7] = sheet LOPAC_screen_w_protease, primary screen at 5 µM, replicate 2, read-out: Replicate_2 (LOPAC screen with protease)
[8] = sheet LOPAC_screen_w_protease, primary screen at 5 µM, mean of two replicates
[9] = sheet LOPAC_screen_w_protease, primary screen at 5 µM, replicate 1
[10] = sheet LOPAC_screen_w_protease, primary screen at 5 µM, replicate 2
[11] = read-out: Replicate_1 (LOPAC screen with protease)
[12] = read-out: Replicate_2 (LOPAC screen with protease)
[13] = read-out: mean (LOPAC screen with protease)

For `O=C(/C=C/c1ccc(O)c(O)c1)OCCc1ccccc1` [Caffeic acid phenethyl ester, reference compound], the EC50 [1, 3] was > 20 µM, the EC50 [1, 4] was > 20 µM and the inhibition at 5 µM [2, 5] was 29.6%. For the same compound, the inhibition at 5 µM [2, 6] was 30.7% and the inhibition at 5 µM [2, 7] was 28.6%.
For `Oc1cc(O)cc(/C=C/c2ccc(O)c(O)c2)c1` [Piceatannol, reference compound], the “Ratio (A/B)” value [1] was 1.3, the EC50 [1, 3] was 0.569 ± 0.075 µM and the EC50 [1, 4] was 0.455 ± 0.113 µM. For the same compound, the inhibition at 5 µM [2, 5] was 92.3%, the inhibition at 5 µM [2, 6] was 93.6% and the inhibition at 5 µM [2, 7] was 91.1%.
For `O=C1C(SCCO)=C(SCCO)C(=O)c2ccccc21` [NSC 95397, reference compound], the EC50 [1, 3] was > 20 µM, the EC50 [1, 4] was > 20 µM and the “mean (LOPAC screen with protease)” value [2, 8] was 19.1086. The “Replicate_1 (LOPAC screen with protease)” value [2, 9] was 20.9168 and the “Replicate_2 (LOPAC screen with protease)” value [2, 10] was 17.3004.
For `N[C@@H](CCC(=O)N[C@@H](CSN=O)C(=O)NCC(=O)O)C(=O)O` [S-Nitrosoglutathione, reference compound], the “Ratio (A/B)” value [1] was 1.5, the EC50 ([1]; A) EC50 with Triton X-100) was 2.29 ± 0.245 µM and the EC50 ([1]; B) EC50 without Triton X-100) was 1.49 ± 0.627 µM. For the same compound, the inhibition at 5 µM [2, 11] was 44.1%, the inhibition at 5 µM [2, 12] was 41.7% and the inhibition at 5 µM [2, 13] was 42.9%.
With `CCOC(=O)[C@]12CC1/C(=N\O)c1ccccc1O2` (mixture of isomers) [CPCCOEt, reference compound] the EC50 [1, 3] was > 20 µM, the EC50 [1, 4] was > 20 µM and the inhibition at 5 µM [2, 5] was 26.9%. For the same compound, the inhibition at 5 µM [2, 6] was 0.406% and the inhibition at 5 µM [2, 7] was 53.3%.
In the case of `CC1(NCC(O)COc2cccc3[nH]ccc23)CCC(C(C)(C)NC(=O)CBr)CC1` (racemic) [(±)-Pindobind, reference compound], the EC50 [1, 3] is reported as 4.69 ± 3.32 µM, the EC50 [1, 4] is reported as > 20 µM and the “mean (LOPAC screen with protease)” value [2, 8] is reported as 33.6627. The “Replicate_1 (LOPAC screen with protease)” value [2, 9] was 33.8938 and the “Replicate_2 (LOPAC screen with protease)” value [2, 10] was 33.4316.
In the case of `Oc1ccccc1O` [Pyrocatechol, reference compound], the “Ratio (A/B)” value [1] is reported as 1.0, the EC50 [1, 3] is reported as 4.04 ± 1.43 µM and the EC50 [1, 4] is reported as 4.09 ± 1.22 µM. The “mean (LOPAC screen with protease)” value [2, 8] was 52.6956, the “Replicate_1 (LOPAC screen with protease)” value [2, 9] was 53.9412 and the “Replicate_2 (LOPAC screen with protease)” value [2, 10] was 51.45.
In the case of `CC(C)(C)c1ccc(S(=O)(=O)/C=C/C#N)cc1` [Bay 11-7085, reference compound], the “Ratio (A/B)” value ([1]; EC50 with Triton X-100 / EC50 without Triton X-100, ratio greater than 2 suggests aggregation-based inhibitor) is reported as 2.0, the EC50 [1, 3] is reported as 1.62 ± 0.103 µM and the EC50 [1, 4] is reported as 0.807 ± 0.12 µM. For the same compound, the “mean (LOPAC screen with protease)” value [2, 8] was 90.2992, the “Replicate_1 (LOPAC screen with protease)” value [2, 9] was 92.052 and the “Replicate_2 (LOPAC screen with protease)” value [2, 10] was 88.5464.
For `Br.Oc1ccc(C2CNCc3sccc32)cc1O` (centres unmarked) [SKF 89626, reference compound], the “Ratio (A/B)” value [1] was 1.2, the EC50 [1, 3] was 3.53 ± 0.565 µM and the EC50 [1, 4] was 2.83 ± 1.97 µM. For the same compound, the “mean (LOPAC screen with protease)” value [2, 8] was 42.8167, the “Replicate_1 (LOPAC screen with protease)” value [2, 9] was 43.262 and the “Replicate_2 (LOPAC screen with protease)” value [2, 10] was 42.3715.
For `Oc1cc2c(cc1O)CN(C(=S)NCCc1ccc(Cl)cc1)CCC2` [Capsazepine, reference compound], the “Ratio (A/B)” value [1] was 1.4, the EC50 ([1]; A) EC50 with Triton X-100) was 0.944 ± 0.098 µM and the EC50 ([1]; B) EC50 without Triton X-100) was 0.668 ± 0.33 µM. It also gave an inhibition at 5 µM [2, 11] of 91.9%, an inhibition at 5 µM [2, 12] of 90.5% and an inhibition at 5 µM [2, 13] of 91.2%.
With `N=C1Sc2ccccc2C2=NCCCN12` [PD 404,182, reference compound] the “Ratio (A/B)” value [1] was 1.4, the EC50 ([1]; with 0.01% Triton X-100, read-out: EC50) was 0.081 µM and the EC50 [1, 4] was 0.06 ± 0.012 µM. For the same compound, the inhibition at 5 µM [2, 5] was 101%, the inhibition at 5 µM [2, 6] was 101% and the inhibition at 5 µM [2, 7] was 100%.
